Laboratory results published in patent US5985926A, “Method for inhibiting intracellular viral replication” (Cell Therapeutics, Inc., priority 1997, dated 1999).

Legend:
[1] = test system: CMV promoter in 293-EBNA cells; assay: AP reporter gene expression from CMV promoter, 293-EBNA cells stably transfected with pCMV.AP; format: cell-based, human cytomegalovirus; human cells
Method in brief: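 293-EBNA cells carrying episomal pCMV.AP, expressing secreted placental alkaline phosphatase from the CMV enhancer/promoter, treated with various compound concentrations. Reporter expression read as change in A405 of conditioned medium with substrate such as ortho-nitrophenol phosphate.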

[2] = test system: PA (phosphatidic acid) formation in tat-transfected and tar-transfected cells; assay: PA mass / myrPA formation in serum-stimulated EB293, 293tat and 293tar cells; format: cell-based, human
Description: Transformed and serum-stimulated cells were measured for total PA mass according to the methods described herein. […] The columns in FIG. 18 represent: (1) EB293 cells plus serum, (2) EB293 cells plus serum plus CT3556 (10 μM.), (3) 293tat cells plus serum, (4) 293tat cells plus serum plus CT3556 (10 μM.), (5) 293tar cells plus serum, and (6) 293tar cells plus serum plus CT3556 (10 μM.).
This procedure begins with those cells that would be normally infected with a virus, such as a retrovirus. However, it is not necessary to utilize a cell line containing a retroviral genome, such as U1 cells. In view of the necessity to utilize containment facilities when using an infected cell line, it is preferable to utilize a macrophage cell line that is not infected. Examples of appropriate macrophage cell lines include, U937, THP1, U1, and P288s (available from standard sources, such as ATCC). The cells are stimulated with a stimulant with or without a candidate drug. Examples of stimulants include 3-5% serum, such as fetal calf serum, or tumor necrosis factor (TNF) (e.g., 20 ng/ml) both of which are standard laboratory reagents. After a time course (within 5 minutes, preferably within 1 minute), the cells are immersed in ice cold methanol to stop any cellular signaling reactions.
One must first quantitatively and qualitatively separate PAs from the other lipids found in serum by a chemical extraction of lipids and high performance liquid chromatography (HPLC) to separate and detect PAs. Chemical extraction can be accomplished, for example, by the method of Bligh et al. (Canadian J. Biochem. Physiol. 37:911-917, 1959) or that of Folch et al. (J. Biol. Chem. 226:497-509, 1957). Briefly, the method of Bligh et al. involves an organic extraction of lipids from biological tissue homogenates or fluids. One volume of sample and three volumes of methanol:chloroform (2:1) are vigorously shaken for 2 min. One volume of chloroform is added and then shaken vigorously for 30 sec. One volume of water is added and then shaken vigorously for 30 sec. The mixture is filtered and the upper aqueous layer is discarded. The lower organic layer contains a mixture of lipid classes. The method of Folch et al. involves the extraction of lipids from biological tissue homogenates or body fluids. One volume of sample plus 20 volumes of chloroform:methanol (2:1) are vigorously shaken for 2 min. The mixture is filtered and an amount of 0.1 N KCl equal to 20% of the extraction mixture volume is added and the mixture is shaken vigorously for 2 min. The aqueous and organic phases are allowed to separate. The upper aqueous layer is discarded. The lower organic layer contains a mixture of lipid classes. Free fatty acids and neutral lipids can be separated from phospholipids by normal phase high performance liquid chromatography (HPLC) by modifying the method of Van Kessel et al. (Biochim et Biophys Acta 486:524-530, 1977). This method involves separation of lipids into their major classes by normal phase (silica) high performance liquid chromatography (HPLC). A 5 micron, 25 cm×0.45 cm silica HPLC column is connected to a binary solvent delivery system followed with a UV detector. The lipid sample is injected on the column and a solvent gradient is run at 1.0 ml/min. […]
Transformed and serum-stimulated cells were measured for total PA mass according to the methods described herein. […]

Row | SMILES | IC50 ([1]; Homo sapiens, 293-EBNA, FIG. 8, read-out: concentration inhibiting AP activity by 50% (CMV assay)) | inhibition of AP expression (CMV promoter) ([1]; in words) | inhibition of myrPA formation in stimulated cells ([2]; 10 μM, tat-transfected cells stimulated with serum) | total PA mass, dose response ([2]; EB293 cells with tat expression plasmid, serum, 0 to one minute (FIG. 20))
1 | CCCCCCCCNCC(O)CCCCCCCCCN1C(=O)CCN(C)C1=O (stereo not shown) [CT1829, 3-(11-octylamino-10-hydroxyundecyl)-1-methyldihydrouracil] | 2 to 6 µM | inhibit CMV promoter driven expression | – | –
2 | CCCCCCCCNCC(O)CCCCCCCCCn1c(=O)c2c(ncn2C)n(C)c1=O (stereo not shown) [CT2576, 1-(11-octylamino-10-hydroxyundecyl)-3,7-dimethylxanthine] | – | – | inhibited myrPA formation in stimulated cells | dose response relationship
